These results are taken from US9606124B2, “Methods of detecting and treating stem-cell containing solid tumors” (The Regents of The University of Michigan, priority 2008, dated 2017).

Entries after “also recorded” stand apart in the source; their conditions may differ.

One experiment concerns FOXO3A. Put plainly: Immunohistochemistry of FOXO3A in xenotransplants. To be noted: mouse, in vivo. Set-up: species or system NOD/SCID mice. The method, then: (§1) Immunostaining. For immunofluorescent staining, sorted CXCR1-positive cells were fixed with 95% methanol at −20° C. for 10 minutes. Cells were rehydrated in PBS and incubated with respective antibodies at room temperature for 1 hour. Primary antibodies used were P-FAK (1:50, Cell Signaling Technology), P-AKT (1:300, Cell Signaling Technology), and FOXO3a (1:250, Cell Signaling Technology). Slides were then washed and incubated 30 minutes with PE conjugated secondary antibodies (Jackson labs). The nuclei were counterstained with DAPI/antifade (Invitrogen) and coverslipped. […] Immunohistochemistry for the detection of ALDH1 (1:100, BD biosciences), P-FAK, P-AKT, FOXO3a expression was done on paraffin section (Ginestier et al. Am. J Pathol. 161:1223-1233, herein incorporated by reference in its entirety). Staining was done utilizing the Histostainplus kit (Zymed laboratories). Diaminobenzidine (DAB) or 3-amino-9-ethylcarbazole (AEC) was used as chromogen and sections were counterstained with hematoxylin.

A further experiment relates to ALDH1. Put plainly: Immunohistochemistry of ALDH1 in xenotransplants. The note with it: compared to untreated tumors. It is filed as in vivo, NOD/SCID mice. The method, then: as §1
Experiment [1] has as its system CD44+/CD24- cell population of MC1, UM2, UM3 xenografts. Put plainly: CD44+/CD24- cells in treated tumors (flow cytometry). More on the design: species or system NOD/SCID mice. The note with it: mouse, in vivo. As to the method: (§2) Animal model. […] Cells from these tumors were transplanted orthotopically in the humanized cleared fat-pad of NOD/SCID mice, without cultivation in vitro. […] 50,000 cells from each xenotransplants were injected in the humanized fat pad of NOD/SCID mice and monitored the tumor growth. […] The animals were euthanized when the tumors were approximately 1.5 cm in the largest diameter, to avoid tumor necrosis and in compliance with regulations for use of vertebrate animal in research. A portion of each fat pad injected was fixed in formalin and embedded in paraffin for histological analysis. The rest of the tumor cells were re-implantated into secondary NOD/SCID mice. Serial dilutions of cells were utilized for the re-implantation with injection of 10,000, 1,000, and 100 cells for each treated tumor.
Flow cytometry analysis. […] CD95/FAS staining were performed utilizing an anti-CD95 labeled APC (1:20, BD biosciences). […] Fresh cells were stained with 1 μg/ml PI (Sigma) for 5 min for viability.

The subject of experiment [2] is ALDEFLUOR-positive cells of SUM159, MC1, UM2, UM3 tumors. Put plainly: ALDEFLUOR assay on treated tumor xenografts. It is filed as in vivo, NOD/SCID mice. The note with it: residual tumors after four weeks of treatment; trihydrate. The method, then:
ALDEFLUOR assay. […] In order to eliminate cells of mouse origin from the xenotransplanted tumors, cell population was stained with an anti-H2Kd antibody (BD biosciences, 1/200, 20 min on ice) followed by staining with a secondary antibody labeled with phycoerythrin (PE) (Jackson labs, 1/250, 20 min on ice).
as §2

Experiment [3] has as its system cells from primary tumors SUM159, MC1, UM2, UM3. Put plainly: Re-implantation of cells from treated tumors into secondary mice. The class given is in vivo, NOD/SCID mice. As to the method:
as §2, with “Serial dilutions of cells were utilized for the re-implantation with injection of 10,000, 1,000, and 100 cells for each treated tumor.” left out

In experiment [4] the test system is SUM159 cell line and human breast cancer xenografts MC1, UM2, UM3. Put plainly: Tumor growth of breast cancer xenografts in the mammary fat pad. It is filed as in vivo, NOD/SCID mice. To be noted: repertaxin 15 mg/Kg s.c. twice a day 28 days, docetaxel 10 mg/Kg i.p. once a week, start at tumor size about 4 mm, trihydrate. As to the method: For each sample, 50,000 cells were injected into the mammary fat pad of NOD-SCID mice which were monitored for tumor size. Injections were started when the tumor size was about 4 mm.
as §2

For another experiment, the system named is FAS-ligand mRNA. Put plainly: Quantitative RT-PCR of FAS-ligand mRNA in SUM159 cells. The class given is cell-based, human. To be noted: repertaxin 100 nM, FAS agonist 500 ng/ml, docetaxel 10 nM, trihydrate. The method, then: RNA extraction and qRT-PCR. After SUM159 cells were treated, total RNA was isolated using RNeasy Mini Kit (QIAGEN) and utilized for real-time quantitative RT-PCR (qRT-PCR) assays in a ABI PRISM® 7900HT sequence detection system.

The subject of experiment [5] is ALDEFLUOR-positive and -negative cells of HCC1954, MDA-MB-453, SUM159. Put plainly: Matrigel invasion assay with IL8 as attractant. To be noted: IL8 100 ng/ml as attractant. It is filed as cell-based, human. The method, then: Invasion assay. Assays were done in triplicate in transwell chambers with 8 μm pore polycarbonate filter inserts for 12-well plates (Corning, N.Y.). Filters were coated with 30 ul of ice-cold 1:6 basement membrane extract (Matrigel, BD-Bioscience) in DMEM/F12 incubated 1 hour at 37° C. Cells were added to the upper chamber in 200 ul of serum-free medium. For the invasion assay, 5000 cells were seeded on the Matrigel-coated filters and the lower chamber was filled with 600 ul of medium supplemented with 10% human serum (Cambrex) or with 600 ul of serum-free medium supplemented with IL8 (100 ng/mL). After 48 hours incubation, the cells on the underside of the filter were counted using light microscopy. Relative invasion was normalized to the unseparated corresponding cell lines under serum condition.

Experiment [6] relates to HCC1954, SUM159, MDA-MB-453. Put plainly: Tumorsphere formation of breast cell lines treated with IL8. It is filed as cell-based. The note with it: human recombinant IL8. The method, then:
Anchorage-independent culture. ALDEFLUOR-positive, -negative and unseparated cells from 184A1, SUM149 and SUM159 were plated as single cells in ultra-low attachment plates (Corning, Acton, Mass.) at low density (5000 viable cells/ml). Cells were grown in serum-free mammary epithelial basal medium (Cambrex Bio Science, Walkerville, Md.) for 3-7 days, as described (18). The capacity of cells to form spheres was quantified after treatment with different doses of IL8 (GenWay Biotech, San Diego, Calif.) added to the medium.

The test system of experiment [7] is four breast cell lines cultured in adherent conditions. Put plainly: ALDEFLUOR-positive population of breast cell lines treated with IL8. It is filed as cell-based. The note with it: human recombinant IL8. As to the method: ALDEFLUOR Assay and Separation of the ALDH-positive Population by FACS. ALDH activity was assessed in 33 BCLs representing the main molecular subtypes of human breast cancer. The ALDEFLUOR kit (StemCell technologies, Durham, N.C., USA) was used to isolate the population with high ALDH enzymatic activity (17). Cells obtained from subconfluent cell lines after trypsinization or from freshly dissociated xenografts were suspended in ALDEFLUOR assay buffer containing ALDH substrate (BAAA, 1 μmol/l per 1×10^6 cells) and incubated for 40 minutes at 37° C. In each experiment a sample of cells was stained under identical conditions with […] of diethylaminobenzaldehyde (DEAB), a specific ALDH inhibitor, as negative control. Flow cytometry sorting was conducted using a FACStarPLUS (Becton Dickinson). ALDEFLUOR fluorescence was excited at 488 nm and detected using standard fluorescein isothiocyanate (FITC) 530/30 band pass filter. For xenotransplanted tumors, incubation with an anti-H2Kd antibody (BD biosciences, 1/200, 20 min on ice) followed by a secondary antibody labeled with phycoerythrin (Jackson labs, 1/250, 20 min on ice) was used to eliminate cells of mouse origin. […] For both cell lines, sorted ALDEFLUOR-positive populations contained more than 98% of ALDEFLUOR-positive cells and no ALDEFLUOR-positive cells were detected in the ALDEFLUOR-negative population.

For experiment [8], the system named is normal mammary epithelial cells. Put plainly: Mammosphere formation by normal mammary epithelial cells. It is filed as cell-based, human. The note with it: normal mammary epithelial cells in suspension, human recombinant IL-8.

With `CC(=O)O[C@@]12CO[C@@H]1C[C@H](O)[C@@]1(C)C(=O)[C@H](O)C3=C(C)[C@@H](OC(=O)[C@H](O)[C@@H](NC(=O)OC(C)(C)C)c4ccccc4)C[C@@](O)([C@@H](OC(=O)c4ccccc4)[C@H]21)C3(C)C` [Docetaxel, (2R,3S)-N-carboxy-3-phenylisoserine, N-tert-butyl ester, 13-ester with 5b-20-epoxy-12a,4,7b,10b,13a-hexahydroxytax-11-en-9-one 4-acetate 2-benzoate, trihydrate], the “nuclear FOXO3A in treated tumors” value in the experiment with FOXO3A is listed as “detected”. In the experiment with ALDH1, the “ALDH1-positive cells / ALDH1 expression in treated tumors” value is reported as “unchanged or increased”. For the same compound, the “percent of CD44+/CD24- cells in residual tumors” value in experiment [1] is on record as “unchanged or increased percent”. Moreover, the “ALDEFLUOR-positive cells (cancer stem cells) in treated tumors, decrease compared to the control” value in [2] was “unchanged or increased”. Further, the Tumors/Injections in experiment [3] (number of cells injected 100) is given as 8/9; in experiment [3] (number of cells injected 250), 2/3; in [3] (number of cells injected 500), 3/4; in experiment [3] (number of cells injected 1,000), 6/6; in experiment [3] (number of cells injected 2,500) it was 2/2; in [3] (number of cells injected 5,000) it was 4/4. The Tumors/Injections in experiment [3] (number of cells injected 10,000) is 2/2. In addition, the “secondary tumor formation / regrowth from serial dilutions of treated primary tumors” value in [3] (secondary NOD/SCID mice, no further treatment, trihydrate) is on record as “formed secondary tumors at all dilutions”. Besides, the “tumor size / tumor growth compared to the control” value is on record as “significant inhibition of tumor growth; also recorded: statistically significant reduction of the tumor size” in experiment [4] (listed as docetaxel) and “statistically significant reduction of the tumor size” in experiment [4]. Further, the “increase of FAS-ligand mRNA level compared to non-treated cells” value with FAS-ligand mRNA (listed as docetaxel) was “induced both IL-8 and FAS-ligand mRNA”; with FAS-ligand mRNA, “induced both FAS-ligand (A) and IL-8 (B) mRNA”.

In the case of “IL8: human recombinant IL8 (GenWay Biotech), chemokine ligand of CXCR1”, the “invasive capacity of ALDEFLUOR-negative cells” value in experiment [5] is given as “did not have any effect; also recorded: no effect”. Moreover, the “invasion of ALDEFLUOR-positive cells through Matrigel” value in experiment [5] (compared to serum) was “increased invasion; also recorded: significant increase”. Besides, the “formation of primary and secondary tumorspheres” value in [6] was “increased the formation of primary and secondary tumorspheres in a dose-dependent manner; also recorded: increased the formation of primary and secondary tumorospheres in a dose-dependent manner”. Besides, in [7], the ALDEFLUOR-positive population entry is “increased the ALDEFLUOR-positive population in a dose-dependent manner”. Moreover, the “formation of primary and secondary mammospheres” value is “increased the formation of primary (B) and secondary mammospheres (C) in a dose-dependent manner” in experiment [8]; “increased the formation of primary and secondary mammospheres in a dose-dependent manner” in experiment [8] (listed as IL-8).
